Holding throughout (assay): NCI tumour cell line growth inhibition, 48 h
Test [1] has as its system HT29 colon.
Test [2] concerns EKVX NSCLC.
For test [3], the system named is UACC-257 melanoma.
Test [4] concerns SK-OV-3 ovarian.
Test [5] relates to OVCAR-5 ovarian.
For test [6], the system named is SF-268 CNS.
For test [7], the system named is NCI-H460 lung.
For test [8], the system named is SW-620 colon.
Test [9] deals with T-47D breast.
For test [10], the system named is SF-295 CNS.

The record followed here is PubChem BioAssay (NCI).

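Protocol summary: plate cells (96-well), add compound at 5 concentrations, incubate 48 h, interpolate endpoints linearly. TGI: concentration producing complete growth inhibition.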

For `O=c1ccc2ccc(S)cc2o1`, the TGI in test [1], in test [2], in test [3], in [4], in test [5] and in test [6] was greater than 100 µM in each case. The TGI in test [7], in [8], in test [9] and in test [10] was greater than 100 µM in each case.
In the case of `CC1(C)CC(=O)C2=C(C1)C(c1ccccc1Cl)C1C(=O)CC(C)(C)CC1(O)O2` (stereo not given), the TGI is greater than 100 µM in test [1]; greater than 100 µM in test [2]; greater than 95.9 µM in [3]; greater than 100 µM in test [4]; greater than 100 µM in [5]; greater than 100 µM in test [6]. Also, the TGI is greater than 100 µM in [7], greater than 100 µM in test [8], greater than 100 µM in [9] and greater than 31.6 µM in [10].
Take `CN(C)CCN(c1ccccn1)c1ccccn1`: the TGI in test [1], in test [2], in test [3], in test [4], in test [5] and in test [6] was greater than 100 µM in each case. Moreover, the TGI in [7], in [8], in test [9] and in test [10] was greater than 100 µM throughout.
Take `c1c[nH]c(-c2cccc3nsnc23)c1`: the TGI in test [1], in [2], in [3], in test [4], in test [5] and in test [6] was greater than 100 µM in each case. Also, the TGI in test [7], in [8], in test [9] and in test [10] was greater than 100 µM in each case.
